Key:
K562 = assay: Cytotoxicity against human K562 cells; type: functional, cell-based
[1] = Cytotoxicity against human HL60 cells; type: functional, cell-based; settings: HL-60
Influenza A virus = assay: Antiviral activity against influenza A virus (A/Puerto Rico/8/34(H1N1)) infected in MDCK cells assessed as inhibition of virus-induced cytopathic effect after 48 hrs by crystal violet staining assay; type: functional, organism-based; settings: A/Puerto Rico/8/1934(H1N1)

Row | Structure (SMILES) | IC50 (K562) [µM] | IC50 [1] [µM] | IC50 (Influenza A virus) [µM]
1 | COc1c(C)c2c(c(OC)c1OC)C(=O)[C@]1(OC2)OCc2c(C)c(OC)c(OC)c(OC)c21 | > 50 | > 50 | 
2 | COc1c(C)c2c(c(OC)c1OC)C(=O)[C@@]1(OC2)OCc2c(C)c(OC)c(OC)c(OC)c21 | > 50 | > 50 | 149
3 | COc1c(C)c2c(c(OC)c1OC)C(=O)C1(OC2)OCc2c(C)c(OC)c(OC)c(OC)c21 (racemic) | > 50 | > 50 | 
4 | NC(=O)c1ncn([C@@H]2O[C@H](CO)[C@@H](O)[C@H]2O)n1 [RIBAVIRIN] |  |  | 101

Reference: ChEMBL document CHEMBL3351981, “Eleganketal A, a highly oxygenated dibenzospiroketal from the marine-derived fungus Spicaria elegans KLA03” (J Nat Prod, 2014)
